Like-named read-outs stand apart in the source and are kept apart here.

The target of assay [1] is T1, 11β-hsd-1 enzyme (Homo sapiens, UniProt P28845). Nature of the assay: biochemical. Conditions: for inhibition / inhibition at 100 µM: read-out: % Inh @ 0.1 mM; for inhibition at 0.1 µM: read-out: % Inh @ 0.1 μM. In short, it runs like this: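 Human 11β-HSD-1 (5 nM) pre-incubated ≥30 min with inhibitor and 500 μM NADPH in triethanolamine buffer pH 8.0 with NaCl, n-dodecyl β-D-maltoside and β-ME; reaction started with G6P/G6PDH/MgCl2 regenerating system and 200 nM 3H-cortisone, run 60 min, stopped with DMSO. 3H-cortisol and substrate separated by radio-HPLC; percent inhibition from peak areas.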

Assay [2] has as its target T1, 11β-hsd-1 enzyme. Nature of the assay: biochemical. In short, it runs like this: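 Enzyme (5 nM) pre-incubated ≥30 min at RT with inhibitor and 500 μM NADPH in triethanolamine buffer pH 8.0; reaction started with glucose-6-phosphate regenerating system and 200 nM 3H-cortisone, stopped with DMSO after 60 min. Product quantified by radio-HPLC; Kiapp from Morrison tight-binding equation.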

The mark [3] stands for this setting: Table 2, inhibitor 0.1 mM as printed.

T1 sequence (P28845 whole entry, species assumed): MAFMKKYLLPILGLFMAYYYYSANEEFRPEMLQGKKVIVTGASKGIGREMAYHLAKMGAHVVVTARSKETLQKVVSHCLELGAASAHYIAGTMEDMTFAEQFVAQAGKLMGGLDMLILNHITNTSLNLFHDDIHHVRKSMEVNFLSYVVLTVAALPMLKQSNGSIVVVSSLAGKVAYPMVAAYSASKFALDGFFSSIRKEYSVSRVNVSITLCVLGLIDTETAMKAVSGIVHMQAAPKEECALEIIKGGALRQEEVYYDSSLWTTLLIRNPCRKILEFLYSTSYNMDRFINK

In the case of `CCc1cccc(NS(=O)(=O)N2CCCC(COc3ccccc3F)C2)n1` (centres unmarked) [Example 114, N-(6-ethylpyridin-2-yl)-3-[(2-fluorophenoxy)methyl]piperi-dine-1-sulfonamide], in assay [1], the inhibition was found to be 97.4%. This compound yielded a Ki in assay [2] of 15 nM.
In the case of `Cc1cccc(NS(=O)(=O)N2CCCN(c3nc4cc(Cl)ccc4o3)CC2)n1` [Example 153, 4-(5-chloro-13-benzoxazol-2-yl)-N-(6-methylpyridin-2-yl)-14-diazepane-1-sulfonamide], the inhibition at 100 µM in assay [1] (setting [3]) came out at 100%. Further, the Ki in assay [2] came out at 8.2 nM.
On to `Cc1cccc(NS(=O)(=O)N2CCN(c3nc4ccc(Cl)cc4o3)CC2)n1` [Example 138, 4-(6-chloro-13-benzoxazol-2-yl)-N-(6-methylpyridin-2-yl)piperazine-1-sulfonamide], for which the inhibition at 100 µM in assay [1] (setting [3]) is 100%. Besides, the Ki in assay [2] amounted to 8.4 nM.
For the compound `CCc1cccc(NS(=O)(=O)N2CCCC(COC)CC2)n1` (centres unmarked) [Example 93, N-(6-ethylpyridin-2-yl)-4-(methoxymethyl)azepane-1-sulfonamide], the inhibition in assay [1] was found to be 69.7%. The same compound registered a Ki in assay [2] of 110 nM.
With `CCc1cccc(NS(=O)(=O)N2CCC(Cc3ccc(F)cc3)CC2)n1` [Example 124, N-(6-ethylpyridin-2-yl)-4-(4-fluorobenzyl)pipendine-1-sulfonamide], the inhibition at 100 µM in assay [1] (setting [3]) is 88.4%. This compound also yielded a Ki in assay [2] of 7 nM.
For `CCc1cccc(NS(=O)(=O)N2CCCC(C)C2)n1` (centres unmarked) [Example 118, N-(6-ethylpyridin-2-yl)-3-methylpiperidine-1-sulfonamide], in assay [1], the inhibition turned out to be 73.6%. In assay [2], this compound had a Ki of 59 nM.
Taken in the same sequence, the figures for `COc1ccc(-c2cnc(N3CCN(S(=O)(=O)Nc4cccc(C)n4)CC3)nc2)cc1` [Example 151, 4-[5-(4-methoxyphenyl)-pyrimidin-2-yl]-N-(6-methylpyridin-2-yl)piperazine-1-sulfonamide] were 100% and 1 nM.
For the compound `O=C1CN(S(=O)(=O)Nc2ccc3ccccc3n2)CCN1C1CCCC1` [Example 169, 4-cyclopentyl-3-oxo-N-quinolin-2-ylpiperazine-1-sulfonamide], the inhibition in assay [1] worked out at 84.6%. Moreover, the Ki in assay [2] worked out at 68 nM.
For the compound `Cc1cccc(NS(=O)(=O)N2CCCCCCC2)n1` [Example 127, N-(6-methylpyridin-2-yl)azocane-1-sulfonamide], the inhibition in assay [1] stood at 91.8%. The same compound displayed a Ki in assay [2] of 25 nM.
With `CCc1cccc(NS(=O)(=O)N2CCN(c3ccc(C#N)cn3)CC2)n1` [Example 3, 4-(5-cyanopyridin-2-yl)-N-(6-ethylpyridin-2-yl)piperazine-1-sulfonamide], the inhibition at 0.1 µM in assay [1] amounted to 88.5%. In addition, the Ki in assay [2] worked out at 9 nM.
For the compound `CCOC(=O)N1CCN(S(=O)(=O)Nc2cccc(C)n2)CC1` [Example 129, ethyl 4-{[(6-methylpyridin-2-yl)amino]sulfonyl}piperazine-1-carboxylate], the inhibition in assay [1] came out at 86.6%. Further, the Ki in assay [2] is 28 nM.
For the compound `CCc1cccc(NS(=O)(=O)N2CCCC(c3ccccc3)CC2)n1` (centres unmarked) [Example 90, N-(6-ethylpyridin-2-yl)-4-phenylazepane-1-sulfonamide], the inhibition in assay [1] was found to be 90.9%. Moreover, the Ki in assay [2] is 18 nM.
As for `O=C1CN(S(=O)(=O)Nc2ccc3ccccc3n2)CCN1Cc1ccc(F)cc1` [Example 173, 4-(4-fluorobenzyl)-3-oxo-N-quinolin-2-ylpiperazine-1-sulfonamide], the inhibition at 100 µM in assay [1] (setting [3]) was 75.5%. Further, the Ki in assay [2] came out at 130 nM.
As to `CCc1cccc(NS(=O)(=O)N2CCC(Oc3ccccc3)CC2)n1` [Example 123, N-(6-ethylpyridin-2-yl)-4-phenoxypiperidine-1-sulfanamide], the inhibition in assay [1] was determined as 100%. The compound further had a Ki in assay [2] of 22 nM.
`CCc1cccc(NS(=O)(=O)N2CCC(CCc3ccccc3)CC2)n1` [Example 104, N-(6-ethylpyridin-2-yl)-4-(2-phenylethyl)piperidine-1-sulfonamide]: the inhibition in assay [1] is 100%. The Ki in assay [2] came to 6.9 nM.
As for `COc1ccc2oc(N3CCN(S(=O)(=O)Nc4ccc5ccccc5n4)CC3)nc2c1` [Example 166, 4-(5-methoxy-13-benzoxazol-2-yl)-N-quinolin-2-ylpiperazine-1-sulfonamide], in assay [1], the inhibition was found to be 100%. This compound gave a Ki in assay [2] of 16 nM.
With `Cc1cccc(NS(=O)(=O)N2CCN(c3ccc(C(F)(F)F)cn3)CC2)n1` [Example 8], the inhibition at 0.1 µM in assay [1] stood at 96.4%. The Ki in assay [2] was 2.1 nM.
With “4-(6-chloro-13-benzoxazol-2- yl)-N-quinolin-2-ylpiperazine- 1-sulfonamide [Example 167]”, the “% Inh @ 0.1 mM” value in assay [1] (setting [3]) is 100%. Further, in assay [2] (read-out: Klapp, Table 2, 5 nM enzyme, 200 nM 3H-cortisone, 500 μM NADPH), the Ki was determined as 3.4 nM.
For the compound `O=S(=O)(Nc1ccc2ccccc2n1)N1CCCCCCC1` [Example 155, N-quinolin-2-ylazocane-1-sulfonamide], the inhibition in assay [1] was found to be 90.6%. Further, in assay [2], the Ki is 7.1 nM.
Taken in the same sequence, the figures for `Cc1cccc(NS(=O)(=O)N2CCN(c3ncccn3)CC2)n1` [Example 125, N-(6-methylpyridin-2-yl)-4-pyrimidin-2-ylpiperazine-1-sulfonamide] were 75.1% and 28.5 nM.
Consider `CCN(CC)C(=O)Cc1cccc(NS(=O)(=O)N2CCc3ccccc3CC2)n1` [Example 17, N,N-diethyl-2-{6-[(1,2,4,5-tetrahydro-3H-3-benzazepin-3-ylsulfonyl)amino]pyridin-2-yl}acetamide], for which the inhibition at 0.1 µM in assay [1] was 100%. Also, in assay [2], the Ki came to 5.7 nM.
As for `Cc1cc(Cl)cnc1N1CCN(S(=O)(=O)Nc2ccc3ncccc3n2)CC1` [Example 37, 4-(5-chloro-3-methylpyridin-2-yl)-N-1,5-naphthyridin-2-ylpiperazine-1-sulfonamide], the inhibition at 0.1 µM in assay [1] is 80%. Moreover, the Ki in assay [2] came out at 100 nM.
As to `CCc1cccc(NS(=O)(=O)N2CCC(Cc3cc(F)ccc3C)CC2)n1` [Example 102, N-(6-ethylpyridin-2-yl)-4-(5-fluoro-2-methylbenzyl)piperidine-1-sulfonamide], in assay [1] (setting [3]), the inhibition at 100 µM worked out at 100%. In addition, the Ki in assay [2] came out at 5.4 nM.
Take `CC(C)c1cccc(NS(=O)(=O)N2CCC(c3ccc(C#N)cn3)CC2)n1` [Example 34]: the inhibition at 0.1 µM in assay [1] was determined as 100%. This compound also showed a Ki in assay [2] of 26 nM.
Regarding `CCc1cccc(NS(=O)(=O)N2CCCCC2c2ccc(F)cc2)n1` (centres unmarked) [Example 105, N-(6-ethylpyridin-2-yl)-2-(4-fluorophenyl)piperidine-1-sulfonamide], in assay [1], the inhibition came out at 90.1%. Further, the Ki in assay [2] was 8.2 nM.
On the same counts, the results for `Cc1cccc(NS(=O)(=O)N2CCCN(c3ncccc3C#N)CC2)n1` [Example 139, 4-(3-cyanopyridin-2-yl)-N-(6-methylpyridin-2-yl)-14-diazepane-1-sulfonamide] are 86.5% and 88 nM.
Turning to `Cc1cccc(NS(=O)(=O)N2CCC(c3ccc(C#N)cn3)CC2)n1` [Example 33, 4-(5-cyanopyridin-2-yl)-N-(6-methylpyridin-2-yl)piperidine-1-sulfonamide], the inhibition at 0.1 µM in assay [1] is 100%. In assay [2], this compound displayed a Ki of 50 nM.
As to `Cc1cc(C)nc(NS(=O)(=O)N2CCN(c3ccc(C#N)cn3)CC2)c1` [Example 9], in assay [1], the inhibition at 0.1 µM came to 86.5%. This compound had a Ki in assay [2] of 14 nM.
Taken in the same sequence, the figures for `CCc1cccc(NS(=O)(=O)N2CCCN(c3ccc(C#N)cn3)CC2)n1` [Example 42] were 89% and 17 nM.
In the case of `CCc1cccc(NS(=O)(=O)N2CCN(c3ncccn3)CC2)n1` [Example 191, N-(6-ethylpyridin-2-yl)-4-pyrimidin-2-ylpiperazine-1-sulfonamide], the inhibition in assay [1] came to 90.5%. In assay [2], the Ki was 120 nM.
In the case of `O=C(OCc1ccccc1)N1CCCN(S(=O)(=O)Nc2ccc3ccccc3n2)CC1` [Example 164, benzyl 4-[(quinolin-2-ylamino)sulfonyl]-14-diazepane-1-carboxylate], in assay [1], the inhibition amounted to 81.4%. In assay [2], this compound came in with a Ki of 38 nM.
Regarding `CCc1cccc(NS(=O)(=O)N2CCC(c3ccc(F)cc3)CC2)n1` [Example 68], in assay [1], the inhibition at 0.1 µM is 96.6%. The compound further came in with a Ki in assay [2] of 5.4 nM.
For `Cc1cccc(NS(=O)(=O)N2CCC(F)(c3ccc(C#N)cc3)CC2)n1` [Example 25, 4-(4-cyanophenyl)-4-fluoro-N-(6-methylpyridin-2-yl)piper-idine-1-sulfonamide], the inhibition at 0.1 µM in assay [1] (Table 1, inhibitor 0.1 μM) was 50%. In assay [2], this compound displayed a Ki of 63.5 nM.
On to `CCc1cccc(NS(=O)(=O)N2CCC(C)CC2)n1` [Example 117, N-(6-ethylpyridin-2-yl)-4-methylpiperidine-1-sulfonamide], for which, in assay [1], the inhibition amounted to 65.2%. In assay [2], this compound gave a Ki of 45 nM.
On the same counts, the results for `CCc1cccc(NS(=O)(=O)N2CCN(c3nc4ncccc4o3)CC2)n1` [Example 145, N-(6-ethylpyridin-2-yl)-4-[13]oxazolo[45-b]pyridin-2-ylpiperazine-1-sulfanamide] are 79.2% and 62 nM.
Regarding `CCc1cccc(NS(=O)(=O)N2CCN(c3nc4nc(C)ccc4o3)CC2)n1` [Example 149, N-(6-ethylpyridin-2-yl)-4-(5-methyl[13]oxazolo[45-b]pyridin-2-yl)piperazine-1-sulfonamide], in assay [1], the inhibition was determined as 78.2%. Further, the Ki in assay [2] was 280 nM.
Taken in the same sequence, the figures for `CCc1cccc(NS(=O)(=O)N2CCCN(Cc3ccc(F)cc3)CC2)n1` [Example 200, N-(6-ethylpyridin-2-yl)-4-(4-fluorobenzyl)-14-diazepane-1-sulfonamide] were 96.8% and 20 nM.

Values taken from US20070027118A1 (priority 2005, published 2007).
